Experimental data taken from patent publication US20260248763A1 (BIO GENUINE (SHANGHAI) BIOTECH CO., LTD, priority 2023, published 2026).
pIC50: −log10 of the molar value. Like-named read-outs stand apart in the source and are kept apart here.

What was measured:
V1aR = target: T1, V1aR (Homo sapiens, UniProt P37288); assay: Ca2+ mobilization in cells stably expressing V1aR (FLIPR, antagonist mode); format: cell-based; conditions: V1a-CHO stably transfected cell line
T1 construct: expressed in transfected cells; host or cells: V1a-CHO stably transfected cell line
T1 sequence (P37288 whole entry, species assumed): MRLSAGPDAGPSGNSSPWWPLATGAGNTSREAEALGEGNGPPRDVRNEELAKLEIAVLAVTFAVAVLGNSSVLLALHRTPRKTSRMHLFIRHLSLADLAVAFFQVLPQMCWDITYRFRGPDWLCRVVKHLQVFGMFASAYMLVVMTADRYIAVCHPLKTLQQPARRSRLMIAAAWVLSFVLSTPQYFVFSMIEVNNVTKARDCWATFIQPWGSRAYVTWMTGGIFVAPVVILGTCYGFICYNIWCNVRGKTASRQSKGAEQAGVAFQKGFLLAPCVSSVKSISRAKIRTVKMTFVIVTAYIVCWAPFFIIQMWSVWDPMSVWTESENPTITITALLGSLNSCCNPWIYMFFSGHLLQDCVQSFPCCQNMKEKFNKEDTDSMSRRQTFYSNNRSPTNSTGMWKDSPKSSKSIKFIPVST
Source text: Test Example 2. Determination of the Effect of the Compound of the Present Disclosure on Ca^2+ Mobilization in Cells Stably Expressing V1aR
To measure the antagonistic effect of the compound of the present disclosure on V1aR activity expressed in the V1a-CHO stably transfected cell line.
• F-12 (Hyclone, SH30026.01) • FLIPR CALCIUM 6 ASSAY KIT (Molecul Device, R8191) • Fetal Bovine Serum (FBS) (AusGeneX, FBS500-S) • Hygromycin B (Solarbio, H8080-1g) • DMSO (Sigma, D4540) • HBSS (Gibco 14025-092) • Probenecid (MCE, HY—B0545) • 0.36 mL 96 Round V-bottom Deep Well Plates for Laboratory (Biaosen P-0.36-BSA-96) • 384-well conical bottom polypropylene plate (Nunc, 264573) • Corning® 384-well Flat Clear Bottom Black Polystyrene TC-treated Microplates (Corning 3764)
• Biological safety cabinet (ECSO, AC2-6S1-TC) • Carbon dioxide cell incubator (ECSO, CCI-170B-8) • Inverted microscope (Olympus, CKX53) • Microplate low-speed centrifuge (Xiangzhi, TD5B) • FLIPR® Penta (Molecul Device, 5.0)
• 1. Cell plating: V1a-CHO cells were digested and harvested, resuspended and counted, and then inoculated into a 384-well cell plate at a density of: 1.2×10^4 cells/25 μL/well. The cell plate was then incubated in an incubator at 37° C. with 5% CO2 for about 16-20 h. • 2. The next day: after preparing Assay Buffer, 20× Component A was thawed to room temperature, diluted with Assay buffer to 1× loading buffer, and placed at room temperature for later use. • 3. The medium was removed from the cell plate, and 40 μL of 1× loading buffer was quickly added to each well. After centrifugation, the cell plate was incubated at 37° C. in the dark for 120 minutes. • 4. The serially diluted positive compound, serially diluted test compound, and agonist working solution were formulated. After mixing the serially diluted positive compound/serially diluted test compound with the agonist at a 1:1 ratio, 20 μL per well was transferred to a 384-well compound source plate. • 5. The cell plate, agonist source plate, and pipette tips were placed into their respective positions in the FLIPR instrument. Using FLIPR Tetra, 10 μL of the diluted agonist from Step 4 was added to each test well, and the data were collected at a wavelength of 515 nm-575 nm. • 6. The signal values were plotted against the compound concentrations, and the curve fitting and IC50 calculation were performed using the nonlinear regression method of GraphPad Prism software.

[1] = Pharmacokinetic determination in SD rats; format: in vivo; conditions: rat, female SD rats, plasma; for AUC(0-t): read-out: Area under the curve AUC0-t; for half-life: read-out: Half-life T1/2 (converted)
Protocol: Test Example 3: Pharmacokinetic Determination in SD Rats
In this study, female SD rats were selected as test animals. The LC/MS/MS method was used to quantitatively determine the plasma drug concentrations of the test compounds at different time points after intravenous injection (2 mg/kg) or oral administration (5 mg/kg) in rats, so as to evaluate the pharmacokinetic profile of the test drugs in rats.
(§1) The example compounds of the present disclosure, made in house.
(§2) SD rats (female, 180-220 g, 6-8 weeks old, purchased from Beijing Vital River Laboratory Animal Technology Co., Ltd., with animal production license number SCXK (Beijing) 2021-0006).
Vehicle for intravenous administration: 5% DMSO+10% Solutol+85% Saline.
Vehicle for oral administration: 5% DMSO+95% PEG400.
The test compound, formulated as a clear solution or suspension, was administered to overnight-fasted SD rats via tail vein injection or oral gavage. For intravenous administration, blood samples (0.25 mL) were collected via jugular vein puncture at pre-dose (0 h) and 0.083, 0.25, 0.5, 1, 2, 4, 6, 8, and 24 h post-dose. The samples were placed into sodium heparin anticoagulant tubes, and the mixture was vortexed thoroughly and centrifuged at 6,000 rpm for 3 minutes at 4° C. For oral gavage, blood samples were collected via jugular vein puncture at pre-dose (0 h) and 0.083, 0.25, 1, 2, 4, 6, 8, and 24 h post-dose. The samples were placed into sodium heparin anticoagulant tubes, and the mixture was vortexed thoroughly and centrifuged at 6,000 rpm for 3 minutes. Plasma drug concentrations were determined using the LC-MS/MS method, and the relevant pharmacokinetic parameters were calculated using the non-compartmental model with linear-log trapezoidal method in Phoenix WinNonlin 8.2.0 pharmacokinetic software.

[2] = Blood-brain distribution determination in SD rats; format: in vivo; conditions: female SD rats, oral, 10 mg/kg
Protocol: Test Example 4: Blood-Brain Distribution Determination in SD Rats
In this study, female SD rats were selected as test animals. The LC/MS/MS method was used to quantitatively determine the drug concentrations of the test compounds in plasma and brain tissues at three different time points (0.5 h, 2 h, 4 h or 6 h) after oral administration (5 mg/kg or 10 mg/kg) in rats, so as to evaluate the pharmacokinetic profile of the test drugs in rats.
as §1, §2
Vehicle for oral administration: 5% DMSO+95% PEG400 or a mixture of (50% Labrasol+50% Water).
The test compound, formulated as a clear solution or suspension, was administered to overnight-fasted SD rats via oral gavage. For oral gavage, blood samples (0.25 mL) were collected via jugular vein puncture at pre-dose (0 h) and 0.5 h, 2 h, 4 h or 6 h post-dose. The samples were placed into sodium heparin anticoagulant tubes. After collection, the blood samples were placed on wet ice and centrifuged within 1 hour to separate the plasma. The separated plasma was stored frozen in a −80° C. freezer. After blood collection, the animals were euthanized by cervical dislocation. The whole brain tissue was dissected out. The collected brain tissue was first rinsed with physiological saline, blotted dry with absorbent paper, and then stored frozen in a −80° C. freezer. Prior to analysis, the brain tissue samples and plasma samples were taken out from the −80° C. freezer. After the brain tissue samples were completely thawed, a given amount of brain tissue was weighed, and 50% methanol/water was added for homogenization. Drug concentrations in plasma and brain tissues were determined using the LC-MS/MS method, and the relevant pharmacokinetic parameters were calculated using the non-compartmental model with linear-log trapezoidal method in Phoenix WinNonlin 8.2.0 pharmacokinetic software.

- pIC50 (V1aR): 6.41
- AUC(0-t) ([1]; 2 mg/kg, IV (2 mpk)): 3050 ng·h/mL
- AUC(0-t) ([1]; 5 mg/kg, PO (5 mpk)): 7700 ng·h/mL
- clearance ([1]; 2 mg/kg, IV (2 mpk), read-out: Clearance Cl): 11.1 mL/min/kg
- half-life ([1]; 2 mg/kg, IV (2 mpk)): 2.8 h
- half-life ([1]; 5 mg/kg, PO (5 mpk)): 2.71 h
- Brain tissue area under the curve AUC0-t [2]: 18727 ng·h/g
- Kp ([2]; rat, brain/plasma, read-out: Brain/plasma exposure ratio): 3.29
- AUC(0-t) ([2]; rat, plasma, read-out: Plasma area under the curve AUC0-t): 5700 ng·h/mL
SMILES: CO/N=C1/C[C@@H](CO)N(C(=O)c2ccc(-c3ccccc3C)cc2)C1 [Nolasiban, reference compound]
